Measurements as given in the supplement of paper PMC4862054.

Columns and labels:
Conditions in all cases: incubation time: 72 h
[1] = test system: MDA-MB-453; assay: normalised viability (% of control), CellTiter-Blue; higher = more viable cells (100 = DMSO, 0 = benzethonium chloride kill control)
Summary of the method: (§1)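 Breast cancer cell lines were treated for 72 h in 384-well format and measured by CellTiter-Blue fluorescence at 560/590 nm. Results were normalised per plate to vehicle (100) and a positive kill control (0). The entry is normalised viability at a single listed concentration of the series.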

[2] = test system: MFM-223; assay: as above
Summary of the method: as §1

[3] = test system: BT-549; assay: as above
Summary of the method: as §1

[4] = test system: SK-BR-3; assay: as above
Summary of the method: as §1

[5] = test system: CAL-51; assay: as above
Summary of the method: as §1

[6] = test system: CAL-120; assay: as above
Summary of the method: as §1

[7] = test system: BT-474; assay: as above
Summary of the method: as §1

[8] = test system: MDA-MB-468; assay: as above
Summary of the method: as §1

[9] = test system: MDA-MB-231; assay: as above
Summary of the method: as §1

[10] = test system: HCC1143; assay: as above
Summary of the method: as §1

[11] = test system: HDQ-P1; assay: as above
Summary of the method: as §1

[12] = test system: DU-4475; assay: as above
Summary of the method: as §1

[13] = test system: CAL-148; assay: as above
Summary of the method: as §1

[14] = test system: CAL-85-1; assay: as above
Summary of the method: as §1

[15] = test system: HCC1599; assay: normalised viability (% of control), CellTiter-Blue; higher = more viable cells (about 100 = DMSO control)
Procedure: (§2)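 DSRT, CellTiter-Blue viability, 72 h incubation. Signal is normalised to DMSO and benzethonium chloride controls. Value is the normalised response at dose 3.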

[16] = test system: MDA-MB-453; assay: as above
Procedure: as §2

[17] = test system: MFM-223; assay: as above
Procedure: as §2

[18] = test system: BT-549; assay: as above
Procedure: as §2

[19] = test system: MDA-MB-436; assay: as above
Procedure: as §2

[20] = test system: Hs578T; assay: as above
Procedure: as §2

[21] = test system: SK-BR-3; assay: as above
Procedure: as §2

[22] = test system: CAL-51; assay: as above
Procedure: as §2

[23] = test system: CAL-120; assay: as above
Procedure: as §2

[24] = test system: BT-474; assay: as above
Procedure: as §2

[25] = test system: MDA-MB-468; assay: as above
Procedure: as §2

[26] = test system: MDA-MB-231; assay: as above
Procedure: as §2

[27] = test system: HCC1143; assay: as above
Procedure: as §2

[28] = test system: HDQ-P1; assay: as above
Procedure: as §2

[29] = test system: DU-4475; assay: as above
Procedure: as §2

[30] = test system: CAL-148; assay: as above
Procedure: as §2

[31] = test system: HCC1937; assay: as above
Procedure: as §2

[32] = test system: CAL-85-1; assay: as above
Procedure: as §2

`Nc1ccccc1NC(=O)c1ccc(CNC(=O)OCc2cccnc2)cc1` [Entinostat] gave a normalised viability ([1]; 1 nM) of 113%, a normalised viability ([2]; 1 nM) of 98.7% and a normalised viability ([3]; 1 nM) of 107%. The normalised viability ([4]; 1 nM) was 102%, the normalised viability ([5]; 1 nM) was 110% and the normalised viability ([6]; 1 nM) was 83.6%. It also gave a normalised viability ([7]; 1 nM) of 109%, a normalised viability ([8]; 1 nM) of 110% and a normalised viability ([9]; 1 nM) of 102%. It also gave a normalised viability ([10]; 1 nM) of 95.7%, a normalised viability ([11]; 1 nM) of 113% and a normalised viability ([12]; 1 nM) of 119%. The normalised viability ([13]; 1 nM) was 95.8%, the normalised viability ([14]; 1 nM) was 97% and the normalised viability ([15]; 100 nM) was 93.3%. For the same compound, the normalised viability ([16]; 10 nM) was 120%, the normalised viability ([17]; 100 nM) was 100% and the normalised viability ([18]; 100 nM) was 91.5%. For the same compound, the normalised viability ([19]; 100 nM) was 83.5%, the normalised viability ([20]; 100 nM) was 93.3% and the normalised viability ([21]; 100 nM) was 85.6%. For the same compound, the normalised viability ([22]; 10 nM) was 114%, the normalised viability ([23]; 100 nM) was 85.4% and the normalised viability ([24]; 100 nM) was 106%. For the same compound, the normalised viability ([25]; 100 nM) was 110%, the normalised viability ([26]; 100 nM) was 97.1% and the normalised viability ([27]; 100 nM) was 82.2%. The normalised viability ([28]; 10 nM) was 102%, the normalised viability ([29]; 10 nM) was 117% and the normalised viability ([30]; 10 nM) was 93.3%. The normalised viability ([31]; 100 nM) was 104% and the normalised viability ([32]; 10 nM) was 96.7%.

Work on `O=C(/C=C/c1cccnc1)NCCCCC1CCN(C(=O)c2ccccc2)CC1` [FK-866] yielded a normalised viability ([1]; 0.1 nM) of 103%, a normalised viability ([2]; 0.1 nM) of 105% and a normalised viability ([3]; 0.1 nM) of 97.3%. It also gave a normalised viability ([4]; 0.1 nM) of 94.4%, a normalised viability ([5]; 0.1 nM) of 101% and a normalised viability ([6]; 0.1 nM) of 106%. For the same compound, the normalised viability ([7]; 0.1 nM) was 99.3%, the normalised viability ([8]; 0.1 nM) was 106% and the normalised viability ([9]; 0.1 nM) was 96.6%. It also gave a normalised viability ([10]; 0.1 nM) of 97.5%, a normalised viability ([11]; 0.1 nM) of 105% and a normalised viability ([12]; 0.1 nM) of 102%. The normalised viability ([13]; 0.1 nM) was 110%, the normalised viability ([14]; 0.1 nM) was 85.7% and the normalised viability ([15]; 10 nM) was 74.7%. For the same compound, the normalised viability ([16]; 1 nM) was 86.1%, the normalised viability ([17]; 10 nM) was 23.2% and the normalised viability ([18]; 10 nM) was 38.6%. The normalised viability ([19]; 10 nM) was 38%, the normalised viability ([20]; 10 nM) was 20.1% and the normalised viability ([21]; 10 nM) was 91.2%. The normalised viability ([22]; 1 nM) was 102%, the normalised viability ([23]; 10 nM) was 55% and the normalised viability ([24]; 10 nM) was 91.6%. It also gave a normalised viability ([25]; 10 nM) of 8.4%, a normalised viability ([26]; 10 nM) of 83.1% and a normalised viability ([27]; 10 nM) of 43.2%. The normalised viability ([28]; 1 nM) was 120%, the normalised viability ([29]; 1 nM) was 84.9% and the normalised viability ([30]; 1 nM) was 91.5%. It also gave a normalised viability ([31]; 10 nM) of 91.1% and a normalised viability ([32]; 1 nM) of 103%.

With `Nc1nc(F)nc2c1ncn2[C@@H]1O[C@H](CO)[C@@H](O)[C@@H]1O` [Fludarabine] the normalised viability ([1]; 1 nM) was 102%, the normalised viability ([2]; 1 nM) was 101% and the normalised viability ([3]; 1 nM) was 110%. It also gave a normalised viability ([4]; 1 nM) of 98.7%, a normalised viability ([5]; 1 nM) of 103% and a normalised viability ([6]; 1 nM) of 83%. It also gave a normalised viability ([7]; 1 nM) of 67.6%, a normalised viability ([8]; 1 nM) of 91.2% and a normalised viability ([9]; 1 nM) of 89.1%. For the same compound, the normalised viability ([10]; 1 nM) was 86.8%, the normalised viability ([11]; 1 nM) was 134% and the normalised viability ([12]; 1 nM) was 101%. The normalised viability ([13]; 1 nM) was 81.9%, the normalised viability ([14]; 1 nM) was 92.8% and the normalised viability ([15]; 100 nM) was 105%. The normalised viability ([16]; 10 nM) was 109%, the normalised viability ([17]; 100 nM) was 92.8% and the normalised viability ([18]; 100 nM) was 107%. The normalised viability ([19]; 100 nM) was 95.2%, the normalised viability ([20]; 100 nM) was 95.4% and the normalised viability ([21]; 100 nM) was 99.9%. It also gave a normalised viability ([22]; 10 nM) of 101%, a normalised viability ([23]; 100 nM) of 82.2% and a normalised viability ([24]; 100 nM) of 107%. The normalised viability ([25]; 100 nM) was 109%, the normalised viability ([26]; 100 nM) was 95.3% and the normalised viability ([27]; 100 nM) was 83%. It also gave a normalised viability ([28]; 10 nM) of 103%, a normalised viability ([29]; 10 nM) of 115% and a normalised viability ([30]; 10 nM) of 90.9%. For the same compound, the normalised viability ([31]; 100 nM) was 110% and the normalised viability ([32]; 10 nM) was 101%.

`O=C(Cc1ccc(-c2ccc(OCCN3CCOCC3)cc2)cn1)NCc1ccccc1` [KX2-391] was tested, and the normalised viability ([1]; 1 nM) was 116%, the normalised viability ([2]; 1 nM) was 91.7% and the normalised viability ([3]; 1 nM) was 124%. It also gave a normalised viability ([4]; 1 nM) of 105%, a normalised viability ([5]; 1 nM) of 106% and a normalised viability ([6]; 1 nM) of 93.8%. For the same compound, the normalised viability ([7]; 1 nM) was 79.1%, the normalised viability ([8]; 1 nM) was 113% and the normalised viability ([9]; 1 nM) was 92.8%. For the same compound, the normalised viability ([10]; 1 nM) was 92.7%, the normalised viability ([11]; 1 nM) was 138% and the normalised viability ([12]; 1 nM) was 103%. The normalised viability ([13]; 1 nM) was 107%, the normalised viability ([14]; 1 nM) was 84.6% and the normalised viability ([15]; 100 nM) was 88%. It also gave a normalised viability ([16]; 10 nM) of 107%, a normalised viability ([17]; 100 nM) of 52.8% and a normalised viability ([18]; 100 nM) of 27.8%. It also gave a normalised viability ([19]; 100 nM) of 59.9%, a normalised viability ([20]; 100 nM) of 20.7% and a normalised viability ([21]; 100 nM) of 19.3%. For the same compound, the normalised viability ([22]; 10 nM) was 101%, the normalised viability ([23]; 100 nM) was 27.6% and the normalised viability ([24]; 100 nM) was 63.5%. It also gave a normalised viability ([25]; 100 nM) of 47.6%, a normalised viability ([26]; 100 nM) of 26.1% and a normalised viability ([27]; 100 nM) of 33%. For the same compound, the normalised viability ([28]; 10 nM) was 108%, the normalised viability ([29]; 10 nM) was 94.4% and the normalised viability ([30]; 10 nM) was 89.1%. For the same compound, the normalised viability ([31]; 100 nM) was 25.1% and the normalised viability ([32]; 10 nM) was 88.1%.

In the case of `N#Cc1ccc(C(c2ccc(C#N)cc2)n2cncn2)cc1` [Letrozole], the normalised viability ([1]; 1 nM) is reported as 96.4%, the normalised viability ([2]; 1 nM) is reported as 49.6% and the normalised viability ([3]; 1 nM) is reported as 105%. The normalised viability ([4]; 1 nM) was 86.8%, the normalised viability ([5]; 1 nM) was 108% and the normalised viability ([6]; 1 nM) was 74.3%. For the same compound, the normalised viability ([7]; 1 nM) was 73.4%, the normalised viability ([8]; 1 nM) was 90.6% and the normalised viability ([9]; 1 nM) was 78.8%. For the same compound, the normalised viability ([10]; 1 nM) was 73.7%, the normalised viability ([11]; 1 nM) was 90.9% and the normalised viability ([12]; 1 nM) was 96.3%. It also gave a normalised viability ([13]; 1 nM) of 107%, a normalised viability ([14]; 1 nM) of 83.2% and a normalised viability ([15]; 100 nM) of 104%. It also gave a normalised viability ([16]; 10 nM) of 88%, a normalised viability ([17]; 100 nM) of 74.9% and a normalised viability ([18]; 100 nM) of 97%. The normalised viability ([19]; 100 nM) was 106%, the normalised viability ([20]; 100 nM) was 88.1% and the normalised viability ([21]; 100 nM) was 83%. The normalised viability ([22]; 10 nM) was 110%, the normalised viability ([23]; 100 nM) was 76.4% and the normalised viability ([24]; 100 nM) was 102%. For the same compound, the normalised viability ([25]; 100 nM) was 91.3%, the normalised viability ([26]; 100 nM) was 84% and the normalised viability ([27]; 100 nM) was 77.9%. The normalised viability ([28]; 10 nM) was 101%, the normalised viability ([29]; 10 nM) was 99.8% and the normalised viability ([30]; 10 nM) was 87.8%. For the same compound, the normalised viability ([31]; 100 nM) was 97.4% and the normalised viability ([32]; 10 nM) was 90.3%.
